Measured values reported in patent publication US12162850B2, “Formulations” (Betagenon AB, priority 2019, dated 2024).

How the values were obtained:
[1] = Particle size analysis of dry-milled products (laser diffraction, Shimadzu SALD-2300); format: physicochemical
Description: Milling was performed for Examples 1a to 1c using an air jet mill (Equipment code: CP-AJM-01; Promas engineers) with the following parameters: Micronisation was repeated in all examples by performing the air jet milling for a second time using the same parameters. This allowed the particle size D90 to be reduced to less than 10 μm. [table] Four drops of Tween 20 were added to 25 mL of water and the mixture was sonicated for 3 minutes to form the dispersant solution. 0.05 g of milled material was transferred into a 250 mL glass beaker. 25 mL of the dispersant solution (Tween 20/water mixture) was added to the beaker with continuous swirling for 2 to 3 minutes. The suspension was transferred into the measuring unit and the particle size distribution measurements were conducted in triplicate.

[2] = Single dose oral pharmacokinetic studies in rabbits; format: in vivo, male New Zealand White rabbits; conditions: for AUCextrap / AUC(0-inf) / AUC(0-t) / Cmax / MRT last / Tmax / half-life: 90 mg/kg b.w. oral single dose
Description: The studies detailed below (and referred to as Examples 2 to 8) were conducted to provide comparative single dose oral pharmacokinetics data for Compound 1, as well as sodium and potassium salts of that compound, using non-coated and enteric-coated capsules in male New Zealand White rabbits.
Compound 1 was made using the process described in WO 2011/004162 and milled as described for Example 1c. The non-coated or enteric coated gelatin capsules were individually filled with 180 mg of dry-milled Compound 1 together with accompanying excipients as indicated. Both capsule types were filled with Compound 1 together with 1.8 mg of sodium docusate, 0.18 mg of PVP K30 and 9 mg of mannitol.
Similarly, Compound 2, non-coated or enteric coated gelatin capsules were individually filled with 180 mg of dry-milled Compound 2 (as obtained in Example 1f) together with 1.8 mg of sodium docusate, 0.18 mg of PVP K30 and 9 mg of mannitol.
For Compound 3, non-coated or enteric coated gelatin capsules were individually filled with 90 mg of dry-milled Compound 3 (as obtained in Example 1i) together with 0.90 mg of sodium docusate, 0.09 mg of PVP K30 and 4.50 mg of mannitol.
40 mL of the 2% w/v methyl cellulose solution was added to a 250 mL conical flask together with 10 g of 2 mm glass beads, and vigorously stirred. Compound 1 (720 mg) was slowly added to the solution and the mixture was with continuously stirred for 1 h. The homogenate was transferred to separate flask and its pH recorded. The suspension formulation was prepared before administration to the animals.
Adult healthy male New Zealand white rabbits aged approximately 2 to 3 months old were used for experimentation after 7 days of acclimatization.
To dose the filled capsules, a soft plastic dosing tube was used. The filled capsule was inserted into the dosing tube so that the short end of the capsule protrudes slightly from the tip of the tube. The tip of the capsule was dipped in mineral oil to aid swallowing.
To dose the suspension, an infant feeding tube was used. The feeding tube was inserted through the mouth of the rabbit to the oesophagus and the stomach, and ascertained that it has not been placed in the trachea before dosing to the animals. The suspension of the Compound 1 was administered through the feeding tube. After the administration of the suspension, drinking water of approximately 2.0-2.5 mL was administered to flush out the contents in the feeding tube.
The animals were restrained in a rabbit restrainer and blood samples (400-500 μL/time point) were collected via the central ear artery at 0.16, 0.25, 0.50, 1.0, 2.0, 4.0, 6.0, 8.0, 24.0, 48.0 and 72 hours post-dosing. Collected blood specimens were centrifuged at 4000 or 6000 rpm, 4° C. for 10 minutes and plasma samples were separated and stored at −80° C. until analysis.
Concentrations of the analyte of Compound 1 in New Zealand white rabbits was determined using an API 3200 Q-trap LC-MS/MS system.
Chromatographic separation was achieved on Zorbax C18, 50×4.6 mm, 5 μm column with methanol-0.1% formic acid as mobile phase with gradient elution. The flow rate was set at 1.0 mL min^−1. Detection was accomplished by a triple-quadrupole tandem mass spectrometer in multiple-reaction monitoring (MRM) scanning via electrospray ionization source, applied in the positive mode. The optimised mass transition ion-pairs for quantitation were m/z 379.999→125.000 for the compound 1 and m/z 376.165→165.00 for the ISD (Haloperidol). Calibration plots were linear over the range of 11.062 to 20594.820 ng/mL.
The data of plasma concentration to respective time points for the analyte Compound 1 were used for the pharmacokinetic analysis. Pharmacokinetic analysis was performed using non-compartmental analysis (NCA) module of Phoenix WinNonlin 6.3 software to determine the following pharmacokinetic parameters: • Cmax • Tmax • AUC0-t • AUC0-∞ • T1/2 • MRT […]

[3] = after 1st milling (air jet mill)
[4] = after 2nd milling (air jet mill)
[5] = male, New Zealand White, rabbit, plasma, po, 90 mg/kg, enteric coated capsule, 90 mg/kg b.w. oral
[6] = male, New Zealand White, rabbit, plasma, po, 90 mg/kg, non-coated capsule, 90 mg/kg b.w. oral
[7] = male, New Zealand White, rabbit, plasma, po, 90 mg/kg, standard suspension, 90 mg/kg b.w. oral
[8] = male, New Zealand White, rabbit, plasma, po, 90 mg/kg, enteric coated capsule, rabbit plasma (Examples 5, 6, 7)
[9] = male, New Zealand White, rabbit, plasma, po, 90 mg/kg, non-coated capsule, rabbit plasma (Examples 2, 3, 4)
[10] = male, New Zealand White, rabbit, plasma, po, 90 mg/kg, standard suspension (2% w/v methylcellulose), rabbit plasma (Example 8)

Particle size distribution D10 [1, 3]: 1.8 μm
Particle size distribution D50 [1, 3]: 5.0 μm
Particle size distribution D90 [1, 3]: 11.4 μm
Particle size distribution D100 [1, 3]: 33.7 μm
Particle size distribution D10 [1, 4]: 1.2 μm
Particle size distribution D50 [1, 4]: 3.7 μm
Particle size distribution D90 [1, 4]: 8.3 μm
Particle size distribution D100 [1, 4]: 21.4 μm
Particle size distribution D10 ([1]; before milling): 13.5 μm
Particle size distribution D50 ([1]; before milling): 28.0 μm
Particle size distribution D90 ([1]; before milling): 55.2 μm
Particle size distribution D100 ([1]; before milling): 187.0 μm
Plasma concentration, mean ([2]; 0.16 h, non-coated capsule, 90 mg/kg b.w. oral, rabbit): 0.000 ng/mL
Plasma concentration, mean ([2]; 0.25 h, non-coated capsule, 90 mg/kg b.w. oral, rabbit): 0.000 ng/mL
Plasma concentration, mean ([2]; 0.50 h, non-coated capsule, 90 mg/kg b.w. oral, rabbit): 50.474 ng/mL
Plasma concentration, mean ([2]; 1.00 h, enteric coated capsule, 90 mg/kg b.w. oral, rabbit): 0.000 ng/mL
Plasma concentration, mean ([2]; 1.00 h, non-coated capsule, 90 mg/kg b.w. oral, rabbit): 386.171 ng/mL
Plasma concentration, mean ([2]; 2.00 h, enteric coated capsule, 90 mg/kg b.w. oral, rabbit): 5.857 ng/mL
Plasma concentration, mean ([2]; 2.00 h, non-coated capsule, 90 mg/kg b.w. oral, rabbit): 1530.898 ng/mL
Plasma concentration, mean ([2]; 4.00 h, enteric coated capsule, 90 mg/kg b.w. oral, rabbit): 206.003 ng/mL
Plasma concentration, mean ([2]; 6.00 h, enteric coated capsule, 90 mg/kg b.w. oral, rabbit): 307.917 ng/mL
Plasma concentration, mean ([2]; 6.00 h, non-coated capsule, 90 mg/kg b.w. oral, rabbit): 25336.370 ng/mL
Plasma concentration, mean ([2]; 8.00 h, enteric coated capsule, 90 mg/kg b.w. oral, rabbit): 1505.092 ng/mL
Plasma concentration, mean ([2]; 24.00 h, enteric coated capsule, 90 mg/kg b.w. oral, rabbit): 45705.076 ng/mL
Plasma concentration, mean ([2]; 72.00 h, non-coated capsule, 90 mg/kg b.w. oral, rabbit): 35657.688 ng/mL
AUCextrap ([2]; enteric coated capsule, rabbit plasma (Examples 5, 6, 7)): 82.44 ± 9.84%
concentration at 0 h [2, 5]: 0 ng/mL
concentration at 0 h [2, 6]: 0 ng/mL
concentration at 0 h [2, 7]: 0 ng/mL
concentration at 0.16 h ([2]; male, New Zealand White, rabbit, plasma, po, 90 mg/kg, 0.16 h, enteric coated capsule, 90 mg/kg b.w. oral): 0 ng/mL
concentration at 0.16 h ([2]; male, New Zealand White, rabbit, plasma, po, 90 mg/kg, 0.16 h, standard suspension, 90 mg/kg b.w. oral): 1210 ng/mL
concentration at 0.25 h ([2]; male, New Zealand White, rabbit, plasma, po, 90 mg/kg, 0.25 h, enteric coated capsule, 90 mg/kg b.w. oral): 0 ng/mL
concentration at 0.25 h ([2]; male, New Zealand White, rabbit, plasma, po, 90 mg/kg, 0.25 h, standard suspension, 90 mg/kg b.w. oral): 4420 ng/mL
concentration at 0.5 h ([2]; male, New Zealand White, rabbit, plasma, po, 90 mg/kg, 0.50 h, enteric coated capsule, 90 mg/kg b.w. oral): 0 ng/mL
concentration at 0.5 h ([2]; male, New Zealand White, rabbit, plasma, po, 90 mg/kg, 0.50 h, standard suspension, 90 mg/kg b.w. oral): 7250 ng/mL
concentration at 1 h ([2]; male, New Zealand White, rabbit, plasma, po, 90 mg/kg, 1.00 h, standard suspension, 90 mg/kg b.w. oral): 9390 ng/mL
concentration at 2 h ([2]; male, New Zealand White, rabbit, plasma, po, 90 mg/kg, 2.00 h, standard suspension, 90 mg/kg b.w. oral): 10100 ng/mL
concentration at 4 h ([2]; male, New Zealand White, rabbit, plasma, po, 90 mg/kg, 4.00 h, non-coated capsule, 90 mg/kg b.w. oral): 13400 ng/mL
concentration at 4 h ([2]; male, New Zealand White, rabbit, plasma, po, 90 mg/kg, 4.00 h, standard suspension, 90 mg/kg b.w. oral): 11600 ng/mL
concentration at 6 h ([2]; male, New Zealand White, rabbit, plasma, po, 90 mg/kg, 6.00 h, standard suspension, 90 mg/kg b.w. oral): 139000 ng/mL
concentration at 8 h ([2]; male, New Zealand White, rabbit, plasma, po, 90 mg/kg, 8.00 h, non-coated capsule, 90 mg/kg b.w. oral): 39200 ng/mL
concentration at 8 h ([2]; male, New Zealand White, rabbit, plasma, po, 90 mg/kg, 8.00 h, standard suspension, 90 mg/kg b.w. oral): 28700 ng/mL
concentration at 24 h ([2]; male, New Zealand White, rabbit, plasma, po, 90 mg/kg, 24.00 h, non-coated capsule, 90 mg/kg b.w. oral): 63600 ng/mL
concentration at 24 h ([2]; male, New Zealand White, rabbit, plasma, po, 90 mg/kg, 24.00 h, standard suspension, 90 mg/kg b.w. oral): 18400 ng/mL
concentration at 48 h [2, 5]: 59700 ng/mL
concentration at 48 h [2, 6]: 54800 ng/mL
concentration at 48 h [2, 7]: 8830 ng/mL
concentration at 72 h ([2]; male, New Zealand White, rabbit, plasma, po, 90 mg/kg, 72.00 h, enteric coated capsule, 90 mg/kg b.w. oral): 52300 ng/mL
concentration at 72 h ([2]; male, New Zealand White, rabbit, plasma, po, 90 mg/kg, 72.00 h, standard suspension, 90 mg/kg b.w. oral): 3030 ng/mL
AUC(0-inf) [2, 8]: 18600 ± 12800 µg·h/mL
AUC(0-t) [2, 8]: 2990 ± 666 µg·h/mL
Cmax [2, 8]: 60800 ± 15700 ng/mL
MRT last [2, 8]: 45.2 ± 2.54 h
Tmax [2, 8]: 40 ± 13.9 h
half-life [2, 8]: 252 ± 133 h
AUC(0-inf) [2, 9]: 7390 ± 3870 µg·h/mL
AUC(0-t) [2, 9]: 3450 ± 405 µg·h/mL
Cmax [2, 9]: 63700 ± 3790 ng/mL
MRT last [2, 9]: 36.9 ± 2.56 h
Tmax [2, 9]: 32 ± 13.9 h
half-life [2, 9]: 68.2 ± 43 h
AUC(0-inf) [2, 10]: 1120 µg·h/mL
AUC(0-t) [2, 10]: 952 ± 175 µg·h/mL
Cmax [2, 10]: 31200 ± 11500 ng/mL
MRT last [2, 10]: 25 ± 5 h
Tmax [2, 10]: 19 ± 9 h
half-life [2, 10]: 36 ± 8 h
AUCextrap ([2]; non-coated capsule, rabbit plasma (Examples 2, 3, 4)): 46.71 ± 19.06%
AUCextrap ([2]; standard suspension (2% w/v methylcellulose), rabbit plasma (Example 8)): 14 ± 9%
Structure (SMILES): O=C(Nc1nc(=O)n(Cc2ccc(Cl)cc2)s1)c1ccc(Cl)cc1 [Compound 1, 4-Chloro-N-[2-[(4-chlorophenyl)methyl]-3-oxo-1,2,4-thiadiazol-5-yl]benzamide]
